Experimental data from ChEMBL document CHEMBL4007505 (J Med Chem, 2017).
Calls of active or inactive are those of the source. The rule behind the calls is not given here.

Legend:
[1] = target: T1, Sodium-dependent dopamine transporter (Homo sapiens, UniProt Q01959); assay: Enhancing of [3H]WIN35,428 binding to recombinant human DAT expressed in HEK293 cell membranes at 10 uM pre-incubated for 10 mins before radioligand addition and measured 90 mins after radioligand addition by micro beta scintillation counting analysis relative to control
T1 sequence (Q01959 whole entry): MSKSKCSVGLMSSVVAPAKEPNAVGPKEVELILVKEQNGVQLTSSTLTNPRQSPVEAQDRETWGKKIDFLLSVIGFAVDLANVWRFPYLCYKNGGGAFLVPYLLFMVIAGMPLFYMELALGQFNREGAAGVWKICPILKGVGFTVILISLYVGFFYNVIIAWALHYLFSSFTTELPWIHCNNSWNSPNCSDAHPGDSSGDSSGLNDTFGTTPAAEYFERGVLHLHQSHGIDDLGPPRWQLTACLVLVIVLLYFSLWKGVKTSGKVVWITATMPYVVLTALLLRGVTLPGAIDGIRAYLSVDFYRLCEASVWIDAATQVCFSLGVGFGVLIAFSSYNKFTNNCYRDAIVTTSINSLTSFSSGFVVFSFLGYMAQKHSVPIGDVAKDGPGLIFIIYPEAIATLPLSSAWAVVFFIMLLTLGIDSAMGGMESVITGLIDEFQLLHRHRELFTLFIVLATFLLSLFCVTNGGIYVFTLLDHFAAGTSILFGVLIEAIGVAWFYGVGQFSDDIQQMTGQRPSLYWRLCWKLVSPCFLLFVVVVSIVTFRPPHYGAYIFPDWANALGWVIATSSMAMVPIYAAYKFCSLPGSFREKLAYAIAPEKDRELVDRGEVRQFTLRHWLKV

[2] = target: T1, Sodium-dependent dopamine transporter; assay: Inhibition of [3H]WIN35,428 binding to recombinant human DAT expressed in HEK293 cell membranes at 10 uM pre-incubated for 10 mins before radioligand addition and measured 90 mins after radioligand addition by micro beta scintillation counting analysis relative to control
Adenosine receptor A3 = target: T2, Adenosine receptor A3 (Mus musculus, UniProt Q61618); assay: Displacement of [125I]N6-(4-amino-3-iodobenzyl)adenosine-5'-N-methyluronamide from mouse A3AR expressed in HEK293T cells pre-incubated for 10 mins before radioligand addition and measured 90 mins after radioligand addition by micro beta scintillation counting analysis relative to control; assay type: cell-based
T2 sequence (Q61618 whole entry): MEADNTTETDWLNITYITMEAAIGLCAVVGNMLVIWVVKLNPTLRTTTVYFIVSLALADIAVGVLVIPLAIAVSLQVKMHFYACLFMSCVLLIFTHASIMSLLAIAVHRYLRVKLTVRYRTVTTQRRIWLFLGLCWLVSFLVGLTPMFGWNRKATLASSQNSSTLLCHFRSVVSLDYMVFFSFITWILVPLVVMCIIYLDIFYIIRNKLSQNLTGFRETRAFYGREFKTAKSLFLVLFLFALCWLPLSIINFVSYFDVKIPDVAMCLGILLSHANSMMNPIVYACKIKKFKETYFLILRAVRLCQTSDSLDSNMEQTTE

[3] = target: T3, Sodium-dependent noradrenaline transporter (Homo sapiens, UniProt P23975); assay: Enhancing of [125I]RTI-55 binding to recombinant human NET expressed in HEK293 cell membranes preincubated for 10 mins followed by radioligand addition measured after 90 mins by micro beta scintillation counting analysis; design: concentration or dose not given beside the values
T3 sequence (P23975 whole entry): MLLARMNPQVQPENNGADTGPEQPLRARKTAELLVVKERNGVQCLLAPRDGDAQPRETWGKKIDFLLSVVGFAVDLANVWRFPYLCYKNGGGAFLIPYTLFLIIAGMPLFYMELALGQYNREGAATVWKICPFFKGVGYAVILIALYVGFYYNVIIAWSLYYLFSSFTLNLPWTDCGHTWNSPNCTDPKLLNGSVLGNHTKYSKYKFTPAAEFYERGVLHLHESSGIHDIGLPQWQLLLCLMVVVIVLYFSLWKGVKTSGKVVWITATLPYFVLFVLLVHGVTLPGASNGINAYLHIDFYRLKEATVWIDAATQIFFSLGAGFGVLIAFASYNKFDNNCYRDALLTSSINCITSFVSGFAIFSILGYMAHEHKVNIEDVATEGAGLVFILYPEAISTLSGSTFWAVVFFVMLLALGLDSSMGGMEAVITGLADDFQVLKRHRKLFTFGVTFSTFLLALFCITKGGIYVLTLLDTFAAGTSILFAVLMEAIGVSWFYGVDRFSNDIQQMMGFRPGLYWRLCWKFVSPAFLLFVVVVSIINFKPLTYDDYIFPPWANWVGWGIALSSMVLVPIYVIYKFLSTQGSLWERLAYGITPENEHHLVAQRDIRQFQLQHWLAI

[4] = target: T3, Sodium-dependent noradrenaline transporter; assay: Inhibition of recombinant human NET expressed in HEK293 […] assessed as reduction in [3H]-norepinephrine uptake incubated for 22 mins by micro beta scintillation counting analysis
[5] = target: T4, Alpha-1B adrenergic receptor (Homo sapiens, UniProt P35368); assay: Displacement of [3H]Prazosin from human adrenergic alpha1B receptor
T4 sequence (P35368 whole entry): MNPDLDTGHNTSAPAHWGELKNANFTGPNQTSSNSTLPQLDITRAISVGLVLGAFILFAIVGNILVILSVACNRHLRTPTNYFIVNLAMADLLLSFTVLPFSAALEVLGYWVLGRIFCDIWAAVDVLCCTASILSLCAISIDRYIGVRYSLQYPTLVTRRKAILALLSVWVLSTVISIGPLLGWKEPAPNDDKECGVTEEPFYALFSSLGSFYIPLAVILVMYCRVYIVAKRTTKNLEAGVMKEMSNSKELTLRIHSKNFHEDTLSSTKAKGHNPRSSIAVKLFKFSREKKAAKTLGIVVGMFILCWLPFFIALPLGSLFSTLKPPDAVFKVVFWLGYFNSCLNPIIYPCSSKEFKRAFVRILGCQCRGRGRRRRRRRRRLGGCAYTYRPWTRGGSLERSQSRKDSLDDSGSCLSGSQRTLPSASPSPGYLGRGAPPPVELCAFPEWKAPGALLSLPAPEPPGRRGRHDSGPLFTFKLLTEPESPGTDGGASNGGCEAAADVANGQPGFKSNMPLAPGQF

[6] = target: T5, Alpha-2C adrenergic receptor (Homo sapiens, UniProt P18825); assay: Displacement of [3H]Rauwolscine from human adrenergic alpha2C receptor
T5 sequence (P18825 whole entry): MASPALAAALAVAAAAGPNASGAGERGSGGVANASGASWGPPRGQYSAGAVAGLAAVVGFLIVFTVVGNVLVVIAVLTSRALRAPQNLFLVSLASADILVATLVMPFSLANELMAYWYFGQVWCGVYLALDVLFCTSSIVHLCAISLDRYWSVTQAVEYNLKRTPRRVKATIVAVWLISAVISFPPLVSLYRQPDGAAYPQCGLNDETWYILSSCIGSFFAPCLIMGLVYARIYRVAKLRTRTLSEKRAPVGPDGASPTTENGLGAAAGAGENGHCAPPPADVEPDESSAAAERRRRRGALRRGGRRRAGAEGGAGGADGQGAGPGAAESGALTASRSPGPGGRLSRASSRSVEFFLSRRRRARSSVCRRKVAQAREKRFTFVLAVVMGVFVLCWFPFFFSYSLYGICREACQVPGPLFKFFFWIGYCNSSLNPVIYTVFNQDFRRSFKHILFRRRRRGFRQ

CNc1nc(C#Cc2ccc(Cl)s2)nc2c1ncn2[C@@H]1O[C@H](C(=O)OC)[C@@H](O)[C@H]1O
Activity [1]: 220%
inhibition [2]: inactive
Ki (Adenosine receptor A3): 34 nM
Activity [3]: 227%
EC50 ([3]; read-out: EC50): 1520 nM
IC50 [4]: 2690 nM
Ki [5]: > 10000 nM
Ki [6]: > 10000 nM
